Measurements published in US20210317086A1, “Tramadol HBR-Celecoxib Co-Crystal” (Mylan Laboratories Limited, priority 2018, published 2021).

Assay: Indicative stability: storage of the co-crystal at 40° C./75% RH and at 25° C./60% RH for 6 months, analysed by PXRD and HPLC
Format: physicochemical
Protocol: The PXRD measurements were carried out using PANalytical X′Pert PRO powder diffractometer equipped with goniometer of θ/θ configuration and X'Celerator detector. The Cu-anode X-ray tube was operated at 40 kV and 30 mA. The experiments were conducted over the […] of 2.0°-50.0°, 0.030° step size and 50 seconds step time.
In yet another embodiment, physical and chemical stability of 1:1 co-crystal of (rac)-tramadol.HBr-celecoxib sample was determined by storing the sample at 40° C./75% relative humidity (RH) and at 25° C./60% relative humidity (RH) for 6 months as mentioned in below Table 1. The samples were analyzed by PXRD and HPLC for final purity.

## 1:1 co-crystal of (rac)-tramadol hydrobromide and celecoxib
At 25° C./60% RH, 1 month
  HPLC purity (%): 99.88%
  PXRD: Stable
At 25° C./60% RH, 2 months
  HPLC purity (%): 99.89%
  PXRD: Stable
At 25° C./60% RH, 3 months
  HPLC purity (%): 99.87%
  PXRD: Stable
At 25° C./60% RH, 6 months
  HPLC purity (%): 99.87%
  PXRD: Stable
At 25° C./60% RH, Initial
  HPLC purity (%): 99.89%
  PXRD: Crystalline
At 40° C./75% RH, 1 month
  HPLC purity (%): 99.86%
  PXRD: Stable
At 40° C./75% RH, 2 months
  HPLC purity (%): 99.89%
  PXRD: Stable
At 40° C./75% RH, 3 months
  HPLC purity (%): 99.88%
  PXRD: Stable
At 40° C./75% RH, 6 months
  HPLC purity (%): 99.86%
  PXRD: Stable
At 40° C./75% RH, Initial
  HPLC purity (%): 99.89%
  PXRD: Crystalline
Conclusion from 6 months storage at 40° C./75% RH and 25° C./60% RH
  physical and chemical stability: physically and chemically stable
Stored for 6 months at 40° C./75% RH and at 25° C./60% RH
  change in HPLC purity and PXRD pattern on storage: no change in HPLC purity and PXRD pattern
